Laboratory results: patent US7276519B2, “Thieno[3,2-b]pyridine-6-carbonitriles and thieno[2,3-b]pyridine-5-carbonitriles as protein kinase inhibitors” (Wyeth, priority 2002, dated 2007)
Several values for one entry are separate records, joined by “and”; a condition that tells them apart may be missing. Equal entries are not always repeated. Where two headings read alike, the source gives them in different places.

Columns and labels:
[1] = system: Rat2 fibroblasts stably transformed with v-Src/Hu c-Src fusion gene; assay: Anchorage independent Src-transformed fibroblast proliferation assay; format: cell-based, rat
Protocol: Anchorage Independent Src-Transformed Fibroblast Proliferation Assay Rat2 fibroblasts stably transformed with a plasmid containing a CMV promotor controlled v-Src/Hu c-Src fusion gene in which the catalytic domain of human c-Src was inserted in place of the v-Src catalytic domain in the v-Src gene are used for the measurement of src dependent suspension growth. […] Multiple entries for a given compound indicate that it was tested multiple times.

[2] = biological target: T1, Recombinant human Src enzyme (Homo sapiens, UniProt P12931); assay: Src kinase assay (LANCE FRET); format: biochemical; conditions: Table 3; 100 μM ATP, biotinylated Cdk1 peptide substrate
T1 construct: purchased PanVera P3044
Protocol: Recombinant human Src enzyme was obtained from PanVera (P3044). […] Homogeneous fluorescence resonance energy transfer kinase assays were performed using the europium/APC detection format (LANCE, Perkin Elmer). Src enzyme (10 ng) was mixed with biotinylated peptide (final concentration 2 μM), 50 mM Hepes (pH 7.5), 10 mM MgCl2, 20 μg/ml BSA, 0.001% Brij-35 (sigma), 100 μM ATP, 1% DMSO. The kinase reaction was incubated for 70 min at 37° C. The reaction was stopped with EDTA at a final concentration of 30 mM EDTA/25 mM Hepes (pH 7.5)/10 μg/ml BSA. The mixture was combined with Eu-labeled anti-phosphotyrosine antibody PT66 (Perkin Elmer, AD0068) and Streptavidin Surelight-APC (Perkin Elmer, CR130-100) in 50 mM Hepes (pH 7.5)/20 μg/ml BSA, and incubated for 30 min according to manufacturer's specifications. […] Multiple entries for a given compound indicate that it was tested multiple times.

[3] = biological target: T2, Rat2 fibroblasts stably transformed with v-Src/Hu Lck fusion gene (Homo sapiens, UniProt P06239, cells depend on it, form not given); assay: Anchorage independent Lck-transformed fibroblast proliferation assay; format: cell-based, rat; conditions: Table 3; read-out: Lck Cells IC50
T2 construct: Candidates are e.g. Schmidt-Ruppin A (P00524) or Prague C (P00526); The human Lck catalytic domain stands in place of the v-Src catalytic domain
Outline: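 Rat2 fibroblasts expressing a CMV-driven v-Src/human Lck catalytic-domain fusion grown in suspension on ultra-low attachment plates, 10,000 cells/well. Compound added Day 2 as two-fold dilutions from 10 to 0.009 micromolar; MTS added Day 5, absorbance read at 490 nm. IC50 derived from blank-corrected % of no-compound control.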

[4] = Rattus norvegicus, Rat2, read-out: Src Cells IC50 μM or % inhib at 10 μM (IC50 values), Table 3
[5] = read-out: Src Cells IC50 μM or % inhib at 10 μM (IC50 values), Table 3
[6] = Rattus norvegicus, Rat2, Table 3, read-out: Src Cells IC50 μM or % inhib at 10 μM (IC50 values)
[7] = Table 3, read-out: Src Cells IC50 μM or % inhib at 10 μM (IC50 values)

T2 sequence (P06239 whole entry, change not shown, the tested form may be a part): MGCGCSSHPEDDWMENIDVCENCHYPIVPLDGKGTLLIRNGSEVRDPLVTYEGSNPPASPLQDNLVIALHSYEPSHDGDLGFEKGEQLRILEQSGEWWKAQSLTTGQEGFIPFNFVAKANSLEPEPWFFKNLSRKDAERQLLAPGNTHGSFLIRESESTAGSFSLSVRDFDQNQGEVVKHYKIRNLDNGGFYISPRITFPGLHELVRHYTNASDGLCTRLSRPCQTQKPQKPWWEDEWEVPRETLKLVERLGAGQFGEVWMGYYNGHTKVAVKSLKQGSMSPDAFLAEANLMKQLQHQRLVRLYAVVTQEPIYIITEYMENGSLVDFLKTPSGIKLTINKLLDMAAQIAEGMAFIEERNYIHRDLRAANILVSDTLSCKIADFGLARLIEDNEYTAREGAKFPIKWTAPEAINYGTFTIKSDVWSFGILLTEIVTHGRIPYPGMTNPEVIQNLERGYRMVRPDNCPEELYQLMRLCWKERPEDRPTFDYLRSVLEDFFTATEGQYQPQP
T1 sequence (P12931 whole entry): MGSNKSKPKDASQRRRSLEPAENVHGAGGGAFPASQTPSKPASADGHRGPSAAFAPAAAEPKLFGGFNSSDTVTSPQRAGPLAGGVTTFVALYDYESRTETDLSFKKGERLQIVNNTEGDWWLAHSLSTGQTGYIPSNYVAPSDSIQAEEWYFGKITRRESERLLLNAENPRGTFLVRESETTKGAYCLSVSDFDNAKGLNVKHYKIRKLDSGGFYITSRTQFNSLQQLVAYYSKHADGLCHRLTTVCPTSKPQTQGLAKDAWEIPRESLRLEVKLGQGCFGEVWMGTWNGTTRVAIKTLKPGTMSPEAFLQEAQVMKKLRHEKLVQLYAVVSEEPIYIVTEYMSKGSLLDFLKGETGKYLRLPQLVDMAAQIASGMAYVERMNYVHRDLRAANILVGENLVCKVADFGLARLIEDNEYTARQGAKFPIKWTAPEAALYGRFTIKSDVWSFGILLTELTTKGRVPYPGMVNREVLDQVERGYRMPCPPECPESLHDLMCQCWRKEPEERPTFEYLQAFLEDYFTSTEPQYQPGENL

IC50 [2]	melting point	GI50 [3]	Compound	IC50 [1, 4] [µM]	IC50 [1, 5]	IC50 [1, 6] [µM]	IC50 [1, 7] [µM]	inhibition at 10 µM ([1]; Rattus norvegicus, Rat2, Table 3, at 10 μM, read-out: Src Cells IC50 μM or % inhib at 10 μM (% values)) [%]	Src Cells IC50 μM or % inhib at 10 μM (% values) ([1]; Table 3, at 10 μM) [%]
> 10000 nM	197 to 198 °C	3540 nM and 4350 nM	COc1cc(Nc2c(C#N)cnc3c(-c4ccc(CN5CCN(C)CC5)cc4)csc23)c(Cl)cc1Cl [Example 142, 7-[(2,4-dichloro-5-methoxyphenyl)amino]-3-{4-[(4-methylpiperazin-1-yl)methyl]phenyl}thieno[3,2-b]pyridine-6-carbonitrile]			3.25	1.99		
10 nM and 12 nM	167 to 169 °C	252 nM and 235 nM	CCCCNCc1ccc(-c2cc3ncc(C#N)c(Nc4cc(OC)c(Cl)cc4Cl)c3s2)cc1 [Example 104, 2-{4-[(butylamino)methyl]phenyl}-7-[(2,4-dichloro-5-methoxyphenyl)amino]thieno[3,2-b]pyridine-6-carbonitrile]			0.837	0.939		
9 nM and 11 nM	141 to 143 °C	63 nM and 65 nM	COc1cc(Nc2c(C#N)cnc3cc(-c4ccc(CNCCCO)cc4)sc23)c(Cl)cc1Cl [Example 107, 7-[(2,4-dichloro-5-methoxyphenyl)amino]-2-(4-{[(3-hydroxypropyl)amino]methyl}phenyl)thieno[3,2-b]pyridine-6-carbonitrile]			0.531	0.543		
13 nM and 12 nM	227 to 229 °C	201 nM and 240 nM	COc1cc(Nc2c(C#N)cnc3cc(-c4ccc(CN5CCOCC5)cn4)sc23)c(Cl)cc1Cl [Example 108, 7-[(2,4-dichloro-5-methoxyphenyl)amino]-2-[5-(morpholin-4-ylmethyl)pyridin-2-I]thieno[3,2-b]pyridine-6-carbonitrile]			0.474	0.319		
> 10000 nM	184 to 185 °C	> 10000 nM	COc1cc(Nc2c(C#N)cnc3c(-c4ccc(CN5CCOCC5)cc4)csc23)c(Cl)cc1Cl [Example 143, 7-[(2,4-dichloro-5-methoxyphenyl)amino]-3-[4-(morpholin-4-ylmethyl)phenyl]thieno[3,2-b]pyridine-6-carbonitrile]					61	45

Compound	IC50 [2]	melting point	GI50 [3]	IC50 [1, 4] [µM]	IC50 [1, 5]	IC50 [1, 6] [µM]	IC50 [1, 7] [µM]	inhibition at 10 µM ([1]; Rattus norvegicus, Rat2, Table 3, at 10 μM, read-out: Src Cells IC50 μM or % inhib at 10 μM (% values)) [%]	Src Cells IC50 μM or % inhib at 10 μM (% values) ([1]; Table 3, at 10 μM) [%]
COc1cc(Nc2c(C#N)cnc3cc(-c4ccc(C(=O)N5CCN(C)CC5)cc4)sc23)c(Cl)cc1Cl [Example 117, 7-[(2,4-dichloro-5-methoxyphenyl)amino]-2-{4-[(4-methylpiperazin-1-yl)carbonyl]phenyl}thieno[3,2-b]pyridine-6-carbonitrile]	15 nM and 11 nM	240 to 243 °C (dec.)	129 nM and 171 nM	0.388	0.274 µM				
COc1cc(Nc2c(C#N)cnc3cc(-c4csc(CN(C)C)c4)sc23)c(Cl)cc1Cl [Example 80, 7-[(2,4-dichloro-5-methoxyphenyl)amino]-2-{5-[(dimethylamino)methyl]thien-3-yl}thieno[3,2-b]pyridine-6-carbonitrile]	13 nM and 14 nM	184 to 186 °C	74 nM and 73 nM	0.79	0.58 µM				
COc1cc(Nc2c(C#N)cnc3cc(-c4ccc(CN5CCSCC5)cc4)sc23)c(Cl)cc1Cl [Example 94, 7-[(2,4-dichloro-5-methoxyphenyl)amino]-2-[4-(thiomorpholin-4-ylmethyl)phenyl]thieno[3,2-b]pyridine-6-carbonitrile]	58 nM and 46 nM	198 to 201 °C	932 nM and 907 nM and 1170 nM	5.52	2.92 µM and 3.17 µM				
COc1cc(Nc2c(C#N)cnc3cc(-c4ccc(N(C)C)cc4)sc23)c(Cl)cc1Cl [Example 73, 7-[(2,4-dichloro-5-methoxyphenyl)amino]-2-[4-(dimethylamino)phenyl]thieno[3,2-b]pyridine-6-carbonitrile]	120 nM and 94 nM	255 to 258 °C	1200 nM and 1100 nM	1.4	1.1 µM				
